Columns and labels:
[1] = test system: SCK cells subcutaneously transplanted; test: Cancer growth in mouse xenograft model; assay type: in vivo, Nude mice Balb/c nu/nu; details: Example 3, FIG. 2, A10-A3 10 mg/kg three times per week, cisplatin 3 mg/kg twice per week
Experimental: Nude mice Balb/c nu/nu were purchased via Central Lab. Animal Inc. from Japan SLC. The mice were 6 to 8 weeks old, weighed 18 to 22 g and acclimated for one week in a lab of the Korean Research Institute of Bioscience and Biotechnology. SCK cells (3×10^7) were subcutaneously transplanted into 40 mice, and were randomly divided into four groups when grown to a tumor mass having a size of 100 to 200 mm^3 after one week. A10-A3 was administered to the mice at a dose of 10 mg/kg three times per week. Cisplatin was administered to the mice at a dose of 3 mg/kg twice per week. As the control group, mIgG was administered at the same level, instead of A10-A3 and saline was administered at the same level, instead of cisplatin. The weight of nude mice and tumors were measured three times per week.

[2] = test system: L1CAM mRNA in cholangiocarcinoma cell lines (SCK); test: Detection of mRNA expression of L1CAM by RT-PCR; assay type: cell-based; details: SCK transduced with siRNA, cultured 72 hours; compared to siRNA non-specific for L1CAM; FIG. 5(A) upper
Experimental: In order to knock down expression of L1CAM in cholangiocarcinoma cell lines (SCK), the cells were transduced with siRNA (5′-[…]-3′, Sequence ID No. 1) specific for L1CAM and siRNA (5′-CAGTCGCGTTTGCGACTGG-3′, Sequence ID No. 2) non-specific for L1CAM and then cultured for 72 hours. In order to isolate the total RNA of the cultured cholangiocarcinoma cells, the cells were treated with a 1 ml trizol reagent (Invitrogen, Inc.) at room temperature for 5 minutes. 0.2 ml of chloroform was added to the cells, and the mixture was violently shaken about 15 times and allowed to react at room temperature for 3 minutes. The resulting solution was centrifuged at 4° C. and 14,000 rpm for […], 400 μl of the supernatant was transferred to another tube and the same amount of isopropanol was added to the residue and the mixture was allowed to react at room temperature for 10 minutes. The reaction solution was centrifuged at 4° C. at 14,000 rpm for 15 minutes, the supernatant was discarded, and the residue was washed with 75% ethanol. oligo(d)T, dNTP, RNase inhibitor and reverse transcriptase were added to 2 ug of the RNA thus extracted and the mixture was allowed to react at 42° C. for one hour to synthesize cDNA. […]

[3] = test system: L1CAM protein in cholangiocarcinoma cell lines (SCK); test: Detection of protein expression of L1CAM using Western blotting; assay type: cell-based; details: SCK transduced with siRNA, cultured 72 hours; compared to siRNA non-specific for L1CAM; FIG. 5(A) lower
Experimental: In order to knock down expression of L1CAM in cholangiocarcinoma cell lines (SCK), the cells were transduced with siRNA (5′-[…]-3′, Sequence ID No. 1) specific for L1CAM and siRNA (5′-CAGTCGCGTTTGCGACTGG-3′, Sequence ID No. 2) non-specific for L1CAM and then cultured for 72 hours and expression of L1CAM was detected in protein level using Western blotting. In order to isolate the total protein of cell lines treated with siRNA, the cell lines were treated with 500 μl of cell lysis solution (RIPA buffer), and the proteins thus obtained were isolated in 10% SDS-PAGE, transferred to a nitrocellulose membrane and subjected to Western blotting. The nitrocellulose membrane was allowed to react in PBST (PBS+0.1% Tween 20) buffer containing 5% skim milk for one hour and washed two or more times with the PBST buffer. Anti-L1CAM antibody (A10-A3) was added as a primary antibody to the reacted nitrocellulose membrane, followed by allowing to react for 2 hours. The resulting membrane was washed with the PBST buffer five times and reacted with anti-mouse IgG HRP (horseradish peroxidase) conjugate (1:5000 Sigma) for one hour. The reaction solution was washed five times with the PBST buffer and was colored with enhanced chemiluminescence reagent (ECL) (Amersham biosciences) as a detection reagent.

| Molecule | proliferation inhibition (tumor growth) [1] | total amount of L1CAM expressed (mRNA) [2] | total amount of protein expressed (L1CAM) [3] |
| --- | --- | --- | --- |
| N.N.[Cl][Pt][Cl] [cisplatin] | about 30% |  |  |
| siRNA specific for L1CAM: siRNA (5′-GCCAATGCCTACATCTACGTT-3′, Sequence ID No. 1) specific for L1CAM (listed as DNA, chemistry not given here) |  | decrease | decrease |
